Data: PubChem BioAssay AID2060902 (Molecular Pharmacology Branch, DTP, NCI, 2025)
Several values for one entry are separate records, joined by “and”; a condition that tells them apart may be missing. Equal values may be shown once.

Test system: 485368-065-R3-J5-PDC spheroids with HUVEC/MSC, viability
Test: Anticancer human tumor 485368-065-R3-J5-PDC patient-derived pancreatic carcinoma cell line growth inhibition [RAS]
Conditions: for viability, T/C: stronger effect = lower value
Outline: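 Agents were tested in combination matrices in half-log decrements from a top concentration at or near clinical Cmax (10 microM if undetermined). Targets were multi-cell spheroids of tumour lines plus HUVEC and MSC stromal cells.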

[1] = curve of first compound, second compound 0.000949 µM
[2] = curve of first compound, second compound 0.003 µM
[3] = curve of first compound, second compound 0.00949 µM
[4] = curve of first compound, second compound 0.03 µM
[5] = curve of first compound, second compound 0.0949 µM
[6] = curve of first compound, second compound 0.3 µM
[7] = second compound 0.000949 µM, first compound 0.0316 µM
[8] = second compound 0.000949 µM, first compound 0.1 µM
[9] = second compound 0.000949 µM, first compound 0.316 µM
[10] = second compound 0.000949 µM, first compound 1 µM
[11] = second compound 0.000949 µM, first compound 3.16 µM
[12] = second compound 0.000949 µM, first compound 10 µM
[13] = second compound 0.003 µM, first compound 0.0316 µM
[14] = second compound 0.003 µM, first compound 0.1 µM
[15] = second compound 0.003 µM, first compound 0.316 µM
[16] = second compound 0.003 µM, first compound 1 µM
[17] = second compound 0.003 µM, first compound 3.16 µM
[18] = second compound 0.003 µM, first compound 10 µM
[19] = second compound 0.00949 µM, first compound 0.0316 µM
[20] = second compound 0.00949 µM, first compound 0.1 µM
[21] = second compound 0.00949 µM, first compound 0.316 µM
[22] = second compound 0.00949 µM, first compound 1 µM
[23] = second compound 0.00949 µM, first compound 3.16 µM
[24] = second compound 0.00949 µM, first compound 10 µM
[25] = second compound 0.03 µM, first compound 0.0316 µM
[26] = second compound 0.03 µM, first compound 0.1 µM
[27] = second compound 0.03 µM, first compound 0.316 µM
[28] = second compound 0.03 µM, first compound 1 µM
[29] = second compound 0.03 µM, first compound 3.16 µM
[30] = second compound 0.03 µM, first compound 10 µM
[31] = second compound 0.0949 µM, first compound 0.0316 µM
[32] = second compound 0.0949 µM, first compound 0.1 µM
[33] = second compound 0.0949 µM, first compound 0.316 µM
[34] = second compound 0.0949 µM, first compound 1 µM
[35] = second compound 0.0949 µM, first compound 3.16 µM
[36] = second compound 0.0949 µM, first compound 10 µM
[37] = second compound 0.3 µM, first compound 0.0316 µM
[38] = second compound 0.3 µM, first compound 0.1 µM
[39] = second compound 0.3 µM, first compound 0.316 µM
[40] = second compound 0.3 µM, first compound 1 µM
[41] = second compound 0.3 µM, first compound 3.16 µM
[42] = second compound 0.3 µM, first compound 10 µM
[43] = second compound 0.000949 µM, first compound 0.00316 µM
[44] = second compound 0.000949 µM, first compound 0.01 µM
[45] = second compound 0.003 µM, first compound 0.00316 µM
[46] = second compound 0.003 µM, first compound 0.01 µM
[47] = second compound 0.00949 µM, first compound 0.00316 µM
[48] = second compound 0.00949 µM, first compound 0.01 µM
[49] = second compound 0.03 µM, first compound 0.00316 µM
[50] = second compound 0.03 µM, first compound 0.01 µM
[51] = second compound 0.0949 µM, first compound 0.00316 µM
[52] = second compound 0.0949 µM, first compound 0.01 µM
[53] = second compound 0.3 µM, first compound 0.00316 µM
[54] = second compound 0.3 µM, first compound 0.01 µM
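Note: spheroids exposed to agents for seven days before readout.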

## Cc1nc(N2CCC3(CC2)COC(C)C3N)c(CO)nc1Sc1ccnc(N)c1Cl (stereo not given) + CCn1c(-c2cc(N3CCN(C)CC3)cnc2C(C)OC)c2c3cc(ccc31)-c1csc(n1)CC(NC(=O)C1CC1C)C(=O)N1CCCC(N1)C(=O)OCC(C)(C)C2
[1]
  IC50: < 31.6 nM
[2]
  IC50: < 31.6 nM
[3]
  IC50: < 31.6 nM
[4]
  IC50: < 31.6 nM
[5]
  IC50: < 31.6 nM
[6]
  IC50: < 31.6 nM
[7]
  viability, T/C: 26.1%
[8]
  viability, T/C: 18.6%
[9]
  viability, T/C: 17.5%
[10]
  viability, T/C: 15%
[11]
  viability, T/C: 11.8%
[12]
  viability, T/C: 8.82%
[13]
  viability, T/C: 18.4%
[14]
  viability, T/C: 15.9%
[15]
  viability, T/C: 12.8%
[16]
  viability, T/C: 10.7%
[17]
  viability, T/C: 7.85%
[18]
  viability, T/C: 4.73%
[19]
  viability, T/C: 13.4%
[20]
  viability, T/C: 12%
[21]
  viability, T/C: 9.63%
[22]
  viability, T/C: 9.5%
[23]
  viability, T/C: 4.66%
[24]
  viability, T/C: 2.44%
[25]
  viability, T/C: 10.6%
[26]
  viability, T/C: 10.2%
[27]
  viability, T/C: 8.7%
[28]
  viability, T/C: 5.25%
[29]
  viability, T/C: 2.49%
[30]
  viability, T/C: 1.01%
[31]
  viability, T/C: 8.37%
[32]
  viability, T/C: 8.31%
[33]
  viability, T/C: 6.58%
[34]
  viability, T/C: 3.11%
[35]
  viability, T/C: 1.36%
[36]
  viability, T/C: 0.74%
[37]
  viability, T/C: 7.17%
[38]
  viability, T/C: 6.81%
[39]
  viability, T/C: 5.18%
[40]
  viability, T/C: 2.89%
[41]
  viability, T/C: 1.79%
[42]
  viability, T/C: 0.68%

## CCN1CCN(Cc2ccc(Nc3ncc(F)c(-c4cc(F)c5nc(C)n(C(C)C)c5c4)n3)nc2)CC1 + CCn1c(-c2cccnc2C(C)OC)c2c3cc(ccc31)N1CCOC(CC(NC(=O)C(C(C)C)N(C)C(=O)C3(F)CCN(C(=O)C#CC(C)(C)N(C)C)CC3)C(=O)N3CCCC(N3)C(=O)OCC(C)(C)C2)C1
[1]
  IC50: > 1000 nM
[2]
  IC50: 639 nM
[3]
  IC50: 941 nM
[4]
  IC50: 693 nM
[5]
  IC50: 888 nM
[6]
  IC50: > 1000 nM
[43]
  viability, T/C: 103%
[44]
  viability, T/C: 88.8%
[7]
  viability, T/C: 103%
[8]
  viability, T/C: 77.9%
[9]
  viability, T/C: 63.5%
[10]
  viability, T/C: 51.5%
[45]
  viability, T/C: 98.4%
[46]
  viability, T/C: 91.5%
[13]
  viability, T/C: 96.4%
[14]
  viability, T/C: 77.3%
[15]
  viability, T/C: 58.2%
[16]
  viability, T/C: 45%
[47]
  viability, T/C: 96.8%
[48]
  viability, T/C: 100%
[19]
  viability, T/C: 91.3%
[20]
  viability, T/C: 84.7%
[21]
  viability, T/C: 60.9%
[22]
  viability, T/C: 49.6%
[49]
  viability, T/C: 96.8%
[50]
  viability, T/C: 100%
[25]
  viability, T/C: 95.4%
[26]
  viability, T/C: 82.6%
[27]
  viability, T/C: 70.5%
[28]
  viability, T/C: 40.7%
[51]
  viability, T/C: 96.8%
[52]
  viability, T/C: 95.1%
[31]
  viability, T/C: 96.1%
[32]
  viability, T/C: 83.4%
[33]
  viability, T/C: 66.3%
[34]
  viability, T/C: 48%
[53]
  viability, T/C: 96.8%
[54]
  viability, T/C: 104%
[37]
  viability, T/C: 89.3%
[38]
  viability, T/C: 88.8%
[39]
  viability, T/C: 63.7%
[40]
  viability, T/C: 55.8%

## CCN1CCN(Cc2ccc(Nc3ncc(F)c(-c4cc(F)c5nc(C)n(C(C)C)c5c4)n3)nc2)CC1 + CCn1c(-c2cc(N3CCN(C)CC3)cnc2C(C)OC)c2c3cc(ccc31)-c1csc(n1)CC(NC(=O)C1CC1C)C(=O)N1CCCC(N1)C(=O)OCC(C)(C)C2
[1]
  IC50: < 3.16 nM
[2]
  IC50: < 3.16 nM
[3]
  IC50: < 3.16 nM
[4]
  IC50: < 3.16 nM
[5]
  IC50: < 3.16 nM
[6]
  IC50: < 3.16 nM
[43]
  viability, T/C: 31.4%
[44]
  viability, T/C: 27.4%
[7]
  viability, T/C: 31.6%
[8]
  viability, T/C: 22.1%
[9]
  viability, T/C: 28.7%
[10]
  viability, T/C: 27.1%
[45]
  viability, T/C: 22.1%
[46]
  viability, T/C: 21.1%
[13]
  viability, T/C: 16.8%
[14]
  viability, T/C: 15.4%
[15]
  viability, T/C: 18.4%
[16]
  viability, T/C: 22.4%
[47]
  viability, T/C: 16.1%
[48]
  viability, T/C: 16.4%
[19]
  viability, T/C: 11%
[20]
  viability, T/C: 15.1%
[21]
  viability, T/C: 14.2%
[22]
  viability, T/C: 18.3%
[49]
  viability, T/C: 11.1%
[50]
  viability, T/C: 11.8%
[25]
  viability, T/C: 9.68%
[26]
  viability, T/C: 13.2%
[27]
  viability, T/C: 13.1%
[28]
  viability, T/C: 16.5%
[51]
  viability, T/C: 8.73%
[52]
  viability, T/C: 10.7%
[31]
  viability, T/C: 9.07%
[32]
  viability, T/C: 8.91%
[33]
  viability, T/C: 12.2%
[34]
  viability, T/C: 15.6%
[53]
  viability, T/C: 8.74%
[54]
  viability, T/C: 8.83%
[37]
  viability, T/C: 7.48%
[38]
  viability, T/C: 9.84%
[39]
  viability, T/C: 10.8%
[40]
  viability, T/C: 15.2%

## CC(=O)OC12COC1CC(O)C1(C)C(=O)C(O)C3=C(C)C(OC(=O)C(O)C(NC(=O)OC(C)(C)C)c4ccccc4)CC(O)(C(OC(=O)c4ccccc4)C21)C3(C)C (stereo not given) + CCn1c(-c2cc(N3CCN(C)CC3)cnc2C(C)OC)c2c3cc(ccc31)-c1csc(n1)CC(NC(=O)C1CC1C)C(=O)N1CCCC(N1)C(=O)OCC(C)(C)C2
[1]
  IC50: < 31.6 nM
[2]
  IC50: < 31.6 nM
[3]
  IC50: < 31.6 nM
[4]
  IC50: < 31.6 nM
[5]
  IC50: < 31.6 nM
[6]
  IC50: < 31.6 nM
[7]
  viability, T/C: 11.7%
[8]
  viability, T/C: 10.4%
[9]
  viability, T/C: 12.1%
[10]
  viability, T/C: 14.3%
[11]
  viability, T/C: 15.2%
[12]
  viability, T/C: 19.9%
[13]
  viability, T/C: 10.7%
[14]
  viability, T/C: 13.2%
[15]
  viability, T/C: 12.2%
[16]
  viability, T/C: 14.1%
[17]
  viability, T/C: 15.3%
[18]
  viability, T/C: 13.6%
[19]
  viability, T/C: 9.77%
[20]
  viability, T/C: 12.6%
[21]
  viability, T/C: 10%
[22]
  viability, T/C: 8.97%
[23]
  viability, T/C: 11.4%
[24]
  viability, T/C: 10.5%
[25]
  viability, T/C: 7.89%
[26]
  viability, T/C: 8.87%
[27]
  viability, T/C: 8.33%
[28]
  viability, T/C: 9.73%
[29]
  viability, T/C: 10.6%
[30]
  viability, T/C: 10.7%
[31]
  viability, T/C: 7.57%
[32]
  viability, T/C: 8.27%
[33]
  viability, T/C: 7.87%
[34]
  viability, T/C: 7.97%
[35]
  viability, T/C: 10.9%
[36]
  viability, T/C: 8.11%
[37]
  viability, T/C: 7.3%
[38]
  viability, T/C: 7.09%
[39]
  viability, T/C: 7.44%
[40]
  viability, T/C: 8.55%
[41]
  viability, T/C: 10.2%
[42]
  viability, T/C: 6.81%

## C[C@@H](NC(=O)c1ncnc(N)c1Cl)c1ncc(C(=O)Nc2cc(C(F)(F)F)c(Cl)cn2)s1
Compound 0.0316 µM
  viability, T/C: 114% (3×) and 115%
Compound 0.1 µM
  viability, T/C: 104% [middle of 4 runs]
Compound 0.316 µM
  viability, T/C: 109% [middle of 4 runs]
Compound 1 µM
  viability, T/C: 93.4% and 96.5% (2×) and 92.5%
Compound 3.16 µM
  viability, T/C: 108% [middle of 4 runs]
Compound 10 µM
  viability, T/C: 82.4% [middle of 4 runs]
Curve of compound
  IC50: > 10000 nM
